ChEMBL document CHEMBL3885881, “DrugMatrix”

Organism: Rattus norvegicus
Test: DrugMatrix - Regimen: Daily Repeat
Type: toxicity, organism-based, Sprague-Dawley
Parameters: regimen Daily Repeat, gender Male, age 6-8 weeks
Conditions: in vivo, po, route oral GAVAGE, vehicle .5 % CMC; for BASOPHIL / EOSINOPHIL / ERYTHROCYTE COUNT / HEMATOCRIT / HEMOGLOBIN / LEUKOCYTE COUNT / LYMPHOCYTE / MEAN CORPUSCULAR HEMOGLOBIN / MEAN CORPUSCULAR HEMOGLOBIN CONCENTRATION / MEAN CORPUSCULAR VOLUME / MONOCYTE / NEUTROPHIL / PLATELET COUNT: tissue Blood; for ALANINE AMINOTRANSFERASE / ALBUMIN / ALKALINE PHOSPHATASE / ASPARTATE AMINOTRANSFERASE / BLOOD UREA NITROGEN / CHLORIDE / CHOLESTEROL / CREATINE PHOSPHOKINASE / CREATININE / GLUCOSE / PHOSPHORUS / POTASSIUM / SODIUM / TOTAL BILIRUBIN / TOTAL PROTEIN: tissue Plasma
[1] = 0 mg/kg, 72 h, dose level Control, time 3 day
[2] = 0 mg/kg, 120 h, dose level Control, time 5 day
[3] = 120 mg/kg, 72 h, dose level Low, time 3 day
[4] = 120 mg/kg, 120 h, dose level Low, time 5 day
[5] = 1500 mg/kg, 72 h, dose level High, time 3 day
[6] = 1500 mg/kg, 120 h, dose level High, time 5 day

In the case of `CC1CC(OC(=O)C(O)c2ccccc2)CC(C)(C)C1` (stereo not drawn) [CYCLANDELATE], the BASOPHIL [1] is reported as 0%, the EOSINOPHIL [1] is reported as 0% and the “ERYTHROCYTE COUNT” value [1] is reported as 6.34 x10E6/uL. For the same molecule, the HEMATOCRIT [1] was 37.62%, the HEMOGLOBIN [1] was 14.82 G/DL and the “LEUKOCYTE COUNT” value [1] was 11.18 x10E3/uL. For the same molecule, the LYMPHOCYTE [1] was 87.5%, the “MEAN CORPUSCULAR HEMOGLOBIN” value [1] was 23.48 pg and the “MEAN CORPUSCULAR HEMOGLOBIN CONCENTRATION” value [1] was 39.5 G/DL. For the same molecule, the “MEAN CORPUSCULAR VOLUME” value [1] was 59.45 fL, the MONOCYTE [1] was 1.67% and the NEUTROPHIL [1] was 10.83%. For the same molecule, the “PLATELET COUNT” value [1] was 1074.83 x10E3/uL, the “ALANINE AMINOTRANSFERASE” value [1] was 36.5 u/L and the ALBUMIN [1] was 3.9 G/DL. The “ALKALINE PHOSPHATASE” value [1] was 370.17 u/L, the “ASPARTATE AMINOTRANSFERASE” value [1] was 63.17 u/L and the “BLOOD UREA NITROGEN” value [1] was 16.83 mg/dL. The CHLORIDE [1] was 99.33 MEQ/L, the CHOLESTEROL [1] was 64.33 mg/dL and the “CREATINE PHOSPHOKINASE” value [1] was 127 u/L. The CREATININE [1] was 0.55 mg/dL, the GLUCOSE [1] was 173.5 mg/dL and the PHOSPHORUS [1] was 10.08 mg/dL. For the same molecule, the POTASSIUM [1] was 6.23 MEQ/L, the SODIUM [1] was 143.5 MEQ/L and the “TOTAL BILIRUBIN” value [1] was 0.52 mg/dL. The “TOTAL PROTEIN” value [1] was 6.35 G/DL, the BASOPHIL [2] was 0% and the EOSINOPHIL [2] was 0.17%. The “ERYTHROCYTE COUNT” value [2] was 6.12 x10E6/uL, the HEMATOCRIT [2] was 37.08% and the HEMOGLOBIN [2] was 14.82 G/DL. The “LEUKOCYTE COUNT” value [2] was 11.87 x10E3/uL, the LYMPHOCYTE [2] was 83.33% and the “MEAN CORPUSCULAR HEMOGLOBIN” value [2] was 24.25 pg. The “MEAN CORPUSCULAR HEMOGLOBIN CONCENTRATION” value [2] was 39.97 G/DL, the “MEAN CORPUSCULAR VOLUME” value [2] was 60.65 fL and the MONOCYTE [2] was 1.5%. For the same molecule, the NEUTROPHIL [2] was 15%, the “PLATELET COUNT” value [2] was 1042.83 x10E3/uL and the “ALANINE AMINOTRANSFERASE” value [2] was 46 u/L. The ALBUMIN [2] was 3.82 G/DL, the “ALKALINE PHOSPHATASE” value [2] was 369.5 u/L and the “ASPARTATE AMINOTRANSFERASE” value [2] was 65 u/L. The “BLOOD UREA NITROGEN” value [2] was 16.33 mg/dL, the CHLORIDE [2] was 100.67 MEQ/L and the CHOLESTEROL [2] was 57.17 mg/dL. For the same molecule, the “CREATINE PHOSPHOKINASE” value [2] was 130 u/L, the CREATININE [2] was 0.53 mg/dL and the GLUCOSE [2] was 163.33 mg/dL. The PHOSPHORUS [2] was 9.53 mg/dL, the POTASSIUM [2] was 6.27 MEQ/L and the SODIUM [2] was 144.83 MEQ/L. For the same molecule, the “TOTAL BILIRUBIN” value [2] was 0.55 mg/dL, the “TOTAL PROTEIN” value [2] was 6.32 G/DL and the BASOPHIL [3] was 0%. The EOSINOPHIL [3] was 0.67%, the “ERYTHROCYTE COUNT” value [3] was 6.2 x10E6/uL and the HEMATOCRIT [3] was 37.27%. For the same molecule, the HEMOGLOBIN [3] was 14.57 G/DL, the “LEUKOCYTE COUNT” value [3] was 11.3 x10E3/uL and the LYMPHOCYTE [3] was 86.33%. The “MEAN CORPUSCULAR HEMOGLOBIN” value [3] was 23.5 pg, the “MEAN CORPUSCULAR HEMOGLOBIN CONCENTRATION” value [3] was 39.1 G/DL and the “MEAN CORPUSCULAR VOLUME” value [3] was 60.1 fL. For the same molecule, the MONOCYTE [3] was 1.33%, the NEUTROPHIL [3] was 11.67% and the “PLATELET COUNT” value [3] was 1168 x10E3/uL. For the same molecule, the “ALANINE AMINOTRANSFERASE” value [3] was 38.33 u/L, the ALBUMIN [3] was 3.93 G/DL and the “ALKALINE PHOSPHATASE” value [3] was 369.67 u/L. For the same molecule, the “ASPARTATE AMINOTRANSFERASE” value [3] was 55.67 u/L, the “BLOOD UREA NITROGEN” value [3] was 14 mg/dL and the CHLORIDE [3] was 99 MEQ/L. The CHOLESTEROL [3] was 67.67 mg/dL, the “CREATINE PHOSPHOKINASE” value [3] was 114.33 u/L and the CREATININE [3] was 0.53 mg/dL. It also gave a GLUCOSE [3] of 156 mg/dL, a PHOSPHORUS [3] of 10.37 mg/dL and a POTASSIUM [3] of 6.13 MEQ/L. For the same molecule, the SODIUM [3] was 144.67 MEQ/L, the “TOTAL BILIRUBIN” value [3] was 0.37 mg/dL and the “TOTAL PROTEIN” value [3] was 6.33 G/DL. For the same molecule, the BASOPHIL [4] was 0%, the EOSINOPHIL [4] was 0% and the “ERYTHROCYTE COUNT” value [4] was 5.8 x10E6/uL. The HEMATOCRIT [4] was 35%, the HEMOGLOBIN [4] was 14.13 G/DL and the “LEUKOCYTE COUNT” value [4] was 12.1 x10E3/uL. For the same molecule, the LYMPHOCYTE [4] was 90.33%, the “MEAN CORPUSCULAR HEMOGLOBIN” value [4] was 24.37 pg and the “MEAN CORPUSCULAR HEMOGLOBIN CONCENTRATION” value [4] was 40.4 G/DL. The “MEAN CORPUSCULAR VOLUME” value [4] was 60.3 fL, the MONOCYTE [4] was 0.67% and the NEUTROPHIL [4] was 9%. For the same molecule, the “PLATELET COUNT” value [4] was 1005.67 x10E3/uL, the “ALANINE AMINOTRANSFERASE” value [4] was 37 u/L and the ALBUMIN [4] was 3.63 G/DL. The “ALKALINE PHOSPHATASE” value [4] was 308.67 u/L, the “ASPARTATE AMINOTRANSFERASE” value [4] was 59 u/L and the “BLOOD UREA NITROGEN” value [4] was 13.33 mg/dL. The CHLORIDE [4] was 99.67 MEQ/L, the CHOLESTEROL [4] was 64 mg/dL and the “CREATINE PHOSPHOKINASE” value [4] was 121.33 u/L. For the same molecule, the CREATININE [4] was 0.53 mg/dL, the GLUCOSE [4] was 159 mg/dL and the PHOSPHORUS [4] was 10.83 mg/dL. The POTASSIUM [4] was 6.27 MEQ/L, the SODIUM [4] was 145.33 MEQ/L and the “TOTAL BILIRUBIN” value [4] was 0.37 mg/dL. The “TOTAL PROTEIN” value [4] was 5.93 G/DL, the BASOPHIL [5] was 0% and the EOSINOPHIL [5] was 0%. The “ERYTHROCYTE COUNT” value [5] was 5.97 x10E6/uL, the HEMATOCRIT [5] was 37.13% and the HEMOGLOBIN [5] was 14.77 G/DL. For the same molecule, the “LEUKOCYTE COUNT” value [5] was 13.43 x10E3/uL, the LYMPHOCYTE [5] was 84.67% and the “MEAN CORPUSCULAR HEMOGLOBIN” value [5] was 24.83 pg. For the same molecule, the “MEAN CORPUSCULAR HEMOGLOBIN CONCENTRATION” value [5] was 39.77 G/DL, the “MEAN CORPUSCULAR VOLUME” value [5] was 62.27 fL and the MONOCYTE [5] was 0.33%. The NEUTROPHIL [5] was 15%, the “PLATELET COUNT” value [5] was 1199 x10E3/uL and the “ALANINE AMINOTRANSFERASE” value [5] was 42.67 u/L. The ALBUMIN [5] was 3.77 G/DL, the “ALKALINE PHOSPHATASE” value [5] was 377.33 u/L and the “ASPARTATE AMINOTRANSFERASE” value [5] was 59.67 u/L. The “BLOOD UREA NITROGEN” value [5] was 13.67 mg/dL, the CHLORIDE [5] was 98.33 MEQ/L and the CHOLESTEROL [5] was 67.67 mg/dL. For the same molecule, the “CREATINE PHOSPHOKINASE” value [5] was 127.67 u/L, the CREATININE [5] was 0.57 mg/dL and the GLUCOSE [5] was 161.67 mg/dL. It also gave a PHOSPHORUS [5] of 11.5 mg/dL, a POTASSIUM [5] of 6.17 MEQ/L and an SODIUM [5] of 143.33 MEQ/L. For the same molecule, the “TOTAL BILIRUBIN” value [5] was 0.57 mg/dL, the “TOTAL PROTEIN” value [5] was 6.03 G/DL and the BASOPHIL [6] was 0%. The EOSINOPHIL [6] was 0.5%, the “ERYTHROCYTE COUNT” value [6] was 5.77 x10E6/uL and the HEMATOCRIT [6] was 35.95%. The HEMOGLOBIN [6] was 14.35 G/DL, the “LEUKOCYTE COUNT” value [6] was 10.4 x10E3/uL and the LYMPHOCYTE [6] was 91.5%. The “MEAN CORPUSCULAR HEMOGLOBIN” value [6] was 24.9 pg, the “MEAN CORPUSCULAR HEMOGLOBIN CONCENTRATION” value [6] was 39.9 G/DL and the “MEAN CORPUSCULAR VOLUME” value [6] was 62.4 fL. The MONOCYTE [6] was 0%, the NEUTROPHIL [6] was 8% and the “PLATELET COUNT” value [6] was 1077.5 x10E3/uL. For the same molecule, the “ALANINE AMINOTRANSFERASE” value [6] was 34.67 u/L, the ALBUMIN [6] was 3.77 G/DL and the “ALKALINE PHOSPHATASE” value [6] was 393 u/L. For the same molecule, the “ASPARTATE AMINOTRANSFERASE” value [6] was 55.67 u/L, the “BLOOD UREA NITROGEN” value [6] was 14.33 mg/dL and the CHLORIDE [6] was 100 MEQ/L. For the same molecule, the CHOLESTEROL [6] was 87 mg/dL, the “CREATINE PHOSPHOKINASE” value [6] was 123.67 u/L and the CREATININE [6] was 0.57 mg/dL. The GLUCOSE [6] was 158 mg/dL, the PHOSPHORUS [6] was 11.47 mg/dL and the POTASSIUM [6] was 6.4 MEQ/L. For the same molecule, the SODIUM [6] was 144.33 MEQ/L, the “TOTAL BILIRUBIN” value [6] was 0.37 mg/dL and the “TOTAL PROTEIN” value [6] was 6.17 G/DL.
